According to patent publication US10934302B1, “SHP2 phosphatase inhibitors and methods of use thereof” (Relay Therapeutics, Inc., priority 2018, dated 2021):

The compounds below were run against SHP2 (Homo sapiens (Human), UniProt Q06124) (assay: SHP2 allosteric inhibition assay (DiFMUP prompt fluorescence)). Details: 0.25 nM SHP2 activated with 0.5 μM peptide IRS1_pY1172(dPEG8)pY1222; substrate DiFMUP.
Assay type: biochemical

Sequence of SHP2 (Q06124 whole entry): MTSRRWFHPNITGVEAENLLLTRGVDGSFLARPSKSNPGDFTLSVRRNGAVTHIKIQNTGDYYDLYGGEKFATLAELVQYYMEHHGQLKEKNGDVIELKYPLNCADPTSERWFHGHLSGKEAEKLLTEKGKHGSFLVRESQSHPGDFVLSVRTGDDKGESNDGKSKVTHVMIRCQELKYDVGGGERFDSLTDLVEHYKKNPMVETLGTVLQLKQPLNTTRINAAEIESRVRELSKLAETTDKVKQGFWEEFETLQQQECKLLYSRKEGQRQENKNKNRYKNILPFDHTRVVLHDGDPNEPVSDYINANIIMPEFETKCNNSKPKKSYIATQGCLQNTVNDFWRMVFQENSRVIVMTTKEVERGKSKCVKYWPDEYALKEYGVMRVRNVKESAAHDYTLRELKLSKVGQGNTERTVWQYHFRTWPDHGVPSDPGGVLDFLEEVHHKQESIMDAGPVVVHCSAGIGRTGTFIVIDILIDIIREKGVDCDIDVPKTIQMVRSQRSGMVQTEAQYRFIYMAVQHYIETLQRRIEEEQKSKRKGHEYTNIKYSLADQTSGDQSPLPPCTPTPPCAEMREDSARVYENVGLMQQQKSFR

Row | SMILES | IC50
1 | N[C@@H]1c2ccccc2CC12CCN(c1cnc3c(N4CCCc5nc(-c6ncco6)ccc54)n[nH]c3n1)CC2 [Example 37] | ≤ 50 nM
2 | C[C@@H](C#N)N(C)c1n[nH]c2nc(N3CCC4(CC3)Cc3ccccc3[C@H]4N)cnc12 (racemic) [Example 150, (S)-2-((6-((S)-1-amino-1,3-dihydrospiro[indene-2,4′-piperidin]-1′-yl)-1H-pyrazolo[3,4-b]pyrazin-3-yl)(methyl)amino)propanenitrile] | 50 to 1000 nM
3 | N#Cc1cccc2c1[C@@H](N)C1(CCN(c3cnc4c(N5CCCc6ncccc65)n[nH]c4n3)CC1)C2 [Example 105, (3S)-3-amino-1′-[3-(1,2,3,4-tetrahydro-1,5-naphthyridin-1-yl)-1H-pyrazolo[3,4-b]pyrazin-6-yl]-1,3-dihydrospiro[indene-2,4′-piperidine]-4-carbonitrile] | ≤ 50 nM
4 | C[C@@H](O)c1nc(Sc2ccnc(Cl)c2Cl)cnc1N1CCC2(CC1)Cc1ccccc1[C@H]2N [Example 259, (1R)-1-{3-[(3S)-3-amino-1,3-dihydrospiro[indene-2,4′-piperidin]-1′-yl]-6-[(2,3-dichloropyridin-4-yl)sulfanyl]pyrazin-2-yl}ethan-1-ol] | ≤ 50 nM
5 | N[C@@H]1c2ccccc2CC12CCN(c1cnc3c(ccn3-c3cccc4ncccc34)n1)CC2 [Example 192, (3S)-1′-[5-(quinolin-5-yl)-5H-pyrrolo[2,3-b]pyrazin-2-yl]-1,3-dihydrospiro[indene-2,4′-piperidin]-3-amine] | 1000 to 10000 nM
6 | N[C@@H]1c2ccccc2CC12CCN(c1cnc(SCC3CCCC3)cn1)CC2 [Example 264, (S)-1′-(5-((cyclopentylmethyl)thio)pyrazin-2-yl)-1,3-dihydrospiro[indene-2,4′-piperidin]-1-amine] | ≤ 50 nM
7 | COc1ccc2c(n1)CC1(CCN(c3cnc4c(N5CCCc6ncccc65)n[nH]c4n3)CC1)[C@@H]2N [Example 108] | ≤ 50 nM
8 | N[C@@H]1c2ccccc2CC12CCN(c1ncc(Sc3cccc(Cl)c3Cl)c(=O)[nH]1)CC2 [Example 261, 2-[(3S)-3-amino-1,3-dihydrospiro[indene-2,4′-piperidin]-1′-yl]-5-[(2,3-dichlorophenyl)sulfanyl]-3,4-dihydropyrimidin-4-one] | ≤ 50 nM
9 | N[C@@H]1c2ccccc2CC12CCN(c1cnc(SC3CCCC3)cn1)CC2 [Example 168, (3S)-1′-[5-(cyclopentylsulfanyl)pyrazin-2-yl]-1,3-dihydrospiro[indene-2,4′-piperidin]-3-amine] | ≤ 50 nM
10 | COc1n[nH]c2nc(N3CCC4(CC3)Cc3ccccc3[C@H]4N)c(CO)nc12 [Example 158, {6-[(3S)-3-amino-1,3-dihydrospiro[indene-2,4′-piperidin]-1′-yl]-3-methoxy-1H-pyrazolo[3,4-b]pyrazin-5-yl}methanol] | ≤ 50 nM
11 | N[C@@H]1c2ccccc2OC12CCN(c1cnc(Oc3ccnc(Cl)c3Cl)cn1)CC2 [Example 64] | ≤ 50 nM
12 | Cn1ccc2c(c1=O)CCCN2c1n[nH]c2nc(N3CCC4(CC3)Cc3cc(F)ccc3[C@H]4N)cnc12 [Example 52] | ≤ 50 nM
13 | N[C@@H]1c2ccccc2CC12CCN(c1cnc(N3CCCC[C@@H]3c3ccccc3)cn1)CC2 (racemic) [Example 166, (S)-1′-(5-((R)-2-phenylpiperidin-1-yl)pyrazin-2-yl)-1,3-dihydrospiro[indene-2,4′-piperidin]-1-amine] | ≤ 50 nM
14 | CN(C)C(=O)c1ccc2c(c1)[C@H](N)C1(CCN(c3cnc4c(N5CCCc6ncccc65)n[nH]c4n3)CC1)C2 [Example 28] | ≤ 50 nM
15 | CC(=O)N1CCN(c2n[nH]c3nc(N4CCC5(CC4)Cc4ccccc4[C@H]5N)c(CO)nc23)c2ccccc21 [Example 102] | ≤ 50 nM
16 | Nc1nccc(-c2n[nH]c3nc(N4CCC5(CC4)Cc4ccccc4[C@@H]5N)cnc23)c1F [Example 77, (R)-1′-(3-(2-amino-3-fluoropyridin-4-yl)-1H-pyrazolo[3,4-b]pyrazin-6-yl)-1,3-dihydrospiro[indene-2,4′-piperidin]-1-amine] | ≤ 50 nM
